# PubChem BioAssay (NCI)
# Where “and” joins values, the source holds several entries; their conditions need not be identical. Identical values can stand only once.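 Growth conditions: 96-well plates. Treatment: test compound, 48 hours, 5 concentrations. Analysis: linear interpolation between bracketing concentrations; unreached endpoints set to highest concentration. Abbreviation: GI50, concentration required for 50% inhibition of growth. Definition used: TGI = concentration required for complete inhibition of growth.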
# Assays:
# Experiment in all cases: NCI tumour cell line growth inhibition, 48 h
# [1] = test system: PC-3 prostate
# [2] = test system: COLO 205 colon
# [3] = test system: T-47D breast
# [4] = test system: HCT-116 colon
# [5] = test system: CCRF-CEM leukemia
# [6] = test system: SW-620 colon
# [7] = test system: SF-539 CNS
# [8] = test system: SNB-75 CNS
# [9] = test system: SK-OV-3 ovarian
# [10] = test system: NCI/ADR-RES ovarian
# [11] = test system: MCF7 breast
# [12] = test system: RXF 393 renal
# [13] = test system: BT-549 breast
# [14] = test system: U251 CNS
# [15] = test system: CAKI-1 renal
# [16] = test system: HCT-15 colon
# [17] = test system: NCI-H522 lung
SMILES,TGI [1],TGI [2] [µM],TGI [3],TGI [4],TGI [5],TGI [6],TGI [7],TGI [8],TGI [9],TGI [10],TGI [11],TGI [12],TGI [13],TGI [14] [µM],TGI [15],TGI [16],TGI [17],GI50 [2] [µM],GI50 [4] [µM],GI50 [12] [µM]
CC(=S)NC=C(C(N)=O)C(N)=O,> 100 µM,> 100,> 100 µM,> 100 µM,> 100 µM,> 100 µM,> 100 µM,> 100 µM,> 100 µM,> 100 µM,> 100 µM,> 100 µM,> 100 µM,> 100,> 100 µM,> 100 µM,> 100 µM,,,
N#CCc1nc(-c2cc3ccc(O)cc3oc2=O)cs1,> 100 µM,> 100,> 100 µM,> 100 µM,> 100 µM,> 100 µM,> 100 µM,> 100 µM,> 100 µM,> 100 µM,> 100 µM,> 100 µM,> 100 µM,> 100,> 100 µM,> 100 µM,> 100 µM,,,
Cc1cc(=O)[nH]c(Sc2ccc([N+](=O)[O-])cc2[N+](=O)[O-])n1,49.7 µM,15.7,43 µM,> 34.6 µM,23.1 µM,18.1 µM,,39.9 µM,> 100 µM,> 66.3 µM,64.2 µM,26.1 µM,26.8 µM,46.3,28.9 µM,28.4 µM,22.9 µM,,,
CN(C(=O)C12C3(C(=O)O)C4C5(C(=O)O)C3C1(C(=O)O)C5C42C(=O)O)C(C)(C)C (stereo not drawn),> 100 µM,> 100,> 100 µM,> 100 µM,> 100 µM,> 100 µM,> 100 µM,> 100 µM,,> 100 µM,> 100 µM,> 100 µM,> 100 µM,> 100,> 100 µM,> 100 µM,> 100 µM,,,
COc1cc(/C=C/C(=O)N[C@@H]2C(=O)N3[C@@H]2SC(C)(C)[C@@H]3C(=O)O)ccc1O,> 100 µM,> 100,> 100 µM,> 100 µM,> 100 µM,> 100 µM,> 100 µM,> 100 µM,> 100 µM,> 100 µM,> 100 µM,> 100 µM,> 100 µM,> 100,> 100 µM,> 100 µM,> 100 µM,,,
COc1ccc(N2C(=O)C3c4[nH]c5ccc(OC)cc5c4C4CCC(c5ccccc5)CC4C3C2=O)cc1 (stereo not drawn),> 75.7 µM,> 86.1,86.3 µM,22.7 µM,10.3 µM,25.1 µM,13.9 µM,16.7 µM,26.1 µM,33.2 µM,> 85.4 µM,25 µM,58.7 µM,22.8,40.6 µM,> 100 µM,27.4 µM,,,
Oc1cc(F)cc2cccnc12,> 100 µM,> 53.4,> 74.7 µM,> 20.9 µM,0.656 µM,> 100 µM,30 µM,> 100 µM,> 100 µM,6.74 µM,> 39.7 µM,46.4 µM,70.2 µM,> 100,> 100 µM,> 100 µM,3.16 µM,,,
N#CC(C#N)=C(N)/C(C#N)=C/c1ccc(O)c(O)c1,> 100 µM,> 100,> 100 µM,> 100 µM,> 100 µM,> 100 µM,> 100 µM,> 100 µM,> 100 µM,> 100 µM,> 100 µM,> 100 µM,> 100 µM,> 100,> 100 µM,> 100 µM,> 100 µM,,,
CNc1cc(Cl)ccc1C(=O)N1CCC[C@H]1CO,> 100 µM,> 100,> 100 µM,> 100 µM,> 100 µM,> 100 µM,> 100 µM,> 100 µM,> 100 µM,> 100 µM,> 100 µM,> 100 µM,> 100 µM,> 100,> 100 µM,> 100 µM,> 100 µM,,,
CC(=O)OC1OC(C2c3cccc(O)c3C(=O)c3c(O)cc(CO)cc32)C(O)C(O)C1O (stereo not drawn),10.5 µM and 12.4 µM,7.63,27.3 µM and 15.6 µM,11.2 µM and 10.8 µM,21.5 µM and 17.9 µM,10.8 µM and 19.3 µM,4.22 µM and 4.73 µM,23.5 µM and 16.3 µM,18.3 µM and 90.8 µM,44.7 µM and 28.1 µM,35.3 µM and > 100 µM,29.8 µM and 55.5 µM,22.6 µM and 47.1 µM,22.6,7.51 µM and 7.82 µM,9.33 µM and 11.2 µM,18.8 µM and 16.7 µM,2.7,,
O=C1C2CCCCC2C(=O)N1n1c(Cc2ccccc2)n[nH]c1=O (stereo not drawn),> 100 µM,> 100,> 100 µM,> 100 µM,> 100 µM,> 100 µM,> 100 µM,> 100 µM,> 100 µM,> 100 µM,> 100 µM,> 100 µM,> 100 µM,> 100,> 100 µM,> 100 µM,> 100 µM,,,
CCOC1Oc2ccccc2-c2nc(N)ncc21 (stereo not drawn),> 100 µM,> 100,> 100 µM,> 100 µM,> 100 µM,> 100 µM,> 100 µM,> 100 µM,> 100 µM,> 100 µM,> 100 µM,> 100 µM,> 100 µM,> 100,> 100 µM,> 100 µM,72.8 µM,,,
CNc1ccc(Cl)cc1C(=O)N1CCC[C@H]1CO,> 100 µM,> 100,> 100 µM,> 100 µM,> 100 µM,> 100 µM,> 100 µM,> 100 µM,> 100 µM,> 100 µM,> 100 µM,> 100 µM,> 100 µM,> 100,> 100 µM,> 100 µM,> 100 µM,,,
CCOC(=O)CCCOc1cc(-c2ccccc2F)nc2cc3c(cc12)OCO3,> 100 µM,> 100,> 100 µM,> 100 µM,> 100 µM,> 100 µM,> 100 µM,> 100 µM,> 100 µM,> 100 µM,> 100 µM,> 100 µM,> 100 µM,> 100,> 100 µM,14.5 µM,,,> 100,25
